Experimental findings from patent publication EP4656642A1, “ESTROGEN RECEPTOR PROTEOLYSIS TARGETING CHIMERA COMPOUND AND USE THEREOF” (GAN & LEE PHARM CO., LTD, priority 2023, dated 2024) are described below.

Common to all, as to type: cell-based
Assay [1] addresses T1, ERα (Homo sapiens, UniProt P03372).
T1 sequence (P03372 1-595): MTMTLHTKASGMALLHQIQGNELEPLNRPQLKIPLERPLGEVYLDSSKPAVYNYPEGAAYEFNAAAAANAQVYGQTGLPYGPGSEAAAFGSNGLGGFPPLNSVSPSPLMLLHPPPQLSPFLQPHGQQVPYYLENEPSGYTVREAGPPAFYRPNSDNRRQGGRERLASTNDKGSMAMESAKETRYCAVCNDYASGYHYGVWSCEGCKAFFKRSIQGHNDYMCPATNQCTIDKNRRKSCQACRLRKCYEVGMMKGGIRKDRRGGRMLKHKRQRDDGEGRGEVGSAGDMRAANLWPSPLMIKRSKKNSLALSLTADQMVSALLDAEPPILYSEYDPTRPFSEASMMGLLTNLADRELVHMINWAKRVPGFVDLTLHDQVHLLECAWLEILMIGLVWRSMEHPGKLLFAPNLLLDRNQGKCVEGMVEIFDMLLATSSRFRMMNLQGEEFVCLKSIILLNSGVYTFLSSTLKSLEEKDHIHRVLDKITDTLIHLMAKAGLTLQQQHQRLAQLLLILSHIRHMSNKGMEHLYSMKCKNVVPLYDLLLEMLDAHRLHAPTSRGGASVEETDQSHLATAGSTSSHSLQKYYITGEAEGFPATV
Put plainly: Degradation of ERα in T-47D cells (immunoblotting, 4 h). Also noted: host or cells: T-47D. On the procedure:
(§1) T-47D cells were inoculated into 6-well plates at a density of 3×10^5 cells/well and cultured at 37°C, 5% CO2 for 24 h. After the cells were attached to the wall, 1µL of the compound solution in dimethyl sulfoxide (final concentration 0.15-1000 nM) was added and continued to be cultured in the incubator with 5% CO2 at 37°C for 4 h. After 4 h, the culture medium was discarded, and each well was washed once with pre-cooled 1×DPBS, and the cells were lysed with a mixture of 50 µL of RIPA lysis buffer (P0013B, Beyotime) and 1× protease inhibitor (P1005, Beyotime), and then centrifuged at 14,000 g for 30 min at 4°C after resting on ice for 20 min, and the supernatant was carefully collected to detect the protein level of ERα by protein immunoblotting (Immunoblotting).

The target in assay [2] is T1, ERα. Put plainly: Degradation of ERα in MCF-7 cells (immunoblotting, 4 h). As for the experimental part: as §1, with “MCF-7” for “T-47D”, “24h.” for “24 h.”, “0.15-1000nM)” for “0.15-1000 nM)”, “in” for “in the”, “incubator at 37°C” for “incubator”, “CO2” for “CO2 at 37°C”
Protein immunoblotting: The total protein concentration in the collected cell lysate supernatant was determined by BCA Protein Concentration Assay Kit (Enhanced) (P0009, Beyotime). According to the total protein concentration detected by BCA, the protein was adjusted to 1 µg/µL with RIPA lysis buffer and 5× SDS-PAGE protein loading buffer (MB01015, Genscript), and the protein was denatured by water bath at 95°C for 5 min, and then centrifuged after denaturation to enrich the condensate on the wall of the centrifuge tubes as a loading sample. […] At the end of electrophoresis, the proteins in the SDS-PAGE gels were transferred to a PVDF membrane at a constant voltage of 100 V for 60 min. After that, the PVDF membrane corresponding to ERα protein and internal reference protein was cut out and incubated in 1×QµickBlock blocking solution (P0252, Beyotime) for 30 min at room temperature on a shaker. […] Protein profiles were analyzed by Image Studio Lite analysis software for grayscale values. Grayscale correction values were calculated for each sample using the Formula: corrected grayscale value = grayscale value of the target protein /corresponding grayscale value of the internal reference. The degradation rate for the compounds was then calculated by comparing the corrected grayscale values of the compound group to the control group. Table 7 Degradation rate (%) of ERα by the PROTAC compounds of the present disclosure and positive control sample in MCF-7 cells

The test system of the next assay is MCF-7 cells. Kind of assay: Inhibition of cell proliferation of MCF-7 cells (CCK-8, 9 days). Particulars: treated for 9 days, CCK-8 kit (Table 6). The source says:
Test Example 4 Inhibitory effect of the PROTAC compounds disclosed in the present disclosure on cell proliferation of MCF-7 cells
The complete medium required for MCF-7 cells (source ATCC) was DMEM (gibco, Product number :11995-065) basal medium containing 10% fetal bovine serum. MCF-7 cells were inoculated in 96-well plates at a density of 800 cells/well, and different concentrations of the PROTAC compounds 1-55 provided in the embodiments of the present disclosure and a positive control sample ARV-471 (source: Innochem) were prepared to treat cells, and cells were treated at 37°C in a cell culture incubator with 5% CO2 for 9 days. Cell viability was detected using a CCK -8 kit (Beyotime , Product number: C0040) according to the manufacturer's instruction. […] Table 5 IC50 values for inhibition of the proliferation of MCF-7 cells by the PROTAC compounds of the present disclosure and positive control sample
For orientation: Tetrazolium assays rely on reduction of a dye to a coloured formazan, in cell work by metabolically active cells.

Broadly, the IC50 is the point on the concentration scale where inhibition reaches its midpoint. A lower IC50 goes with greater potency in that assay. For `O=C1CCC(N2Cc3c(ccc4c3OCC43CCN(C(=O)[C@H]4CC[C@H](OC5CCN(c6ccc([C@@H]7c8ccc(O)cc8CC[C@@H]7c7ccccc7)cc6)CC5)CC4)CC3)C2=O)C(=O)N1` (stereo partly shown) [D8], the entries for the “Degradation rate (%) of ERα in T-47D cells” value on ERα [1] (1nM compound) and on ERα [1] (10nM compound) were 33% and 75%, respectively. For the same compound, the “Degradation rate (%) of ERα in MCF-7 cells” value at ERα [2] (1nM compound) is 9%; at ERα [2] (10nM compound), 62%. For the same compound, the IC50 in the assay on MCF-7 cells came to 11400 nM.
For `O=C1CCC(N2C(=O)c3ccc4c(c3C2=O)OCC42CCN(CC3CCN(c4ccc([C@@H]5c6ccc(O)cc6CC[C@@H]5c5ccccc5)cc4)CC3)CC2)C(=O)N1` (stereo partly shown) [H4] the same measures were -41%, -48%, -32%, -7% and 7740 nM.
In the same order, the values of `O=C1CCC(N2Cc3c(ccc4c3OCC43CCN(CC4CCN(C5CCN(c6ccc([C@@H]7c8ccc(O)cc8CC[C@@H]7c7ccccc7)cc6)CC5)CC4)CC3)C2=O)C(=O)N1` (stereo partly shown) [K6] are 36%, 58%, 17%, 62% and 724 nM.
In the same order, the values of `O=C1CCC(N2Cc3c(ccc4c3OCC43CCN(CC(=O)N4CC5(CCC(C#Cc6ccc([C@@H]7c8ccc(O)cc8CC[C@@H]7c7ccccc7)cc6)CC5)C4)CC3)C2=O)C(=O)N1` (stereo partly shown) [B30] are 15%, 46%, 19%, 40% and 9.92 nM.
As to `O=C1CCC(N2Cc3c(ccc4c3OCC43CCN(C4CC5(C4)CN(c4ccc([C@@H]6c7ccc(O)cc7CC[C@@H]6c6ccccc6)cc4)C5)CC3)C2=O)C(=O)N1` (stereo partly shown) [L18], the “Degradation rate (%) of ERα in T-47D cells” value was 13% on ERα [1] (1nM compound) and 8% at ERα [1] (10nM compound). Moreover, the “Degradation rate (%) of ERα in MCF-7 cells” value at ERα [2] (1nM compound) is given as -6%; at ERα [2] (10nM compound), 5%. Moreover, the midpoint of inhibition with MCF-7 cells, the IC50, lay at 544 nM.
For `O=C1CCC(N2Cc3c(ccc4c3OCC43CCN(C(=O)C4CCN(C(=O)C5CCN(c6ccc([C@@H]7c8ccc(O)cc8CC[C@@H]7c7ccccc7)cc6)CC5)CC4)CC3)C2=O)C(=O)N1` (stereo partly shown) [K36] the same measures were 54%, 76%, 20%, 61% and 15.2 nM.
For `O=C1CCC(N2Cc3c(ccc4c3OCC43CCN(C4CCN(CC5CCN(c6ccc([C@@H]7c8ccc(O)cc8CC[C@@H]7c7ccccc7)cc6)CC5)CC4F)CC3)C2=O)C(=O)N1` (stereo partly shown) [J5], the “Degradation rate (%) of ERα in T-47D cells” value on ERα [1] (1nM compound) is reported as 46%; on ERα [1] (10nM compound) it was 81%. For the same compound, the “Degradation rate (%) of ERα in MCF-7 cells” value on ERα [2] (1nM compound) amounted to 40%; at ERα [2] (10nM compound), 78%. Also, half-maximal inhibition with MCF-7 cells (IC50) required 4.63 nM.
`O=C1CCC(N2C(=O)c3cc4c(cc3C2=O)OC2(CCN(C3CC5(CCN(c6ccc([C@@H]7c8ccc(O)cc8CC[C@@H]7c7ccccc7)cc6)CC5)C3)CC2)C4)C(=O)N1` (stereo partly shown) [K1]: the “Degradation rate (%) of ERα in T-47D cells” value is reported as 7% at ERα [1] (1nM compound) and 27% on ERα [1] (10nM compound). Further, the figures for the “Degradation rate (%) of ERα in MCF-7 cells” value on ERα [2] (1nM compound) and at ERα [2] (10nM compound) were -2% and -3%, respectively. In addition, in the assay with MCF-7 cells, the IC50 is 511 nM.
For `CC1(C)CC(N2CCC3(CC2)COc2c3ccc3c2CN(C2CCC(=O)NC2=O)C3=O)CCN1C(=O)C1CCN(c2ccc([C@@H]3c4ccc(O)cc4CC[C@@H]3c3ccccc3)cc2)CC1` (stereo partly shown) [K28] the same measures were 62%, 86%, 66%, 86% and 8.18 nM.
For `O=C1CCC(N2Cc3c(ccc4c3OCC43CCN(CC(=O)N4CCC5(CCN(c6ccc([C@@H]7c8ccc(O)cc8CC[C@@H]7c7ccccc7)cc6)CC5)C4)CC3)C2=O)C(=O)N1` (stereo partly shown) [A73], the results for the “Degradation rate (%) of ERα in T-47D cells” value on ERα [1] (1nM compound) and on ERα [1] (10nM compound) were 55% and 73%, respectively. Besides, the “Degradation rate (%) of ERα in MCF-7 cells” value amounted to 26% at ERα [2] (1nM compound) and 72% on ERα [2] (10nM compound). In the assay with MCF-7 cells, this compound showed an IC50 of 4170 nM.
For the compound `O=C1CCC(N2Cc3c(ccc4c3OCC43CCN(C4C5CCC4CN(C(=O)C4CCN(c6ccc([C@@H]7c8ccc(O)cc8CC[C@@H]7c7ccccc7)cc6)CC4)C5)CC3)C2=O)C(=O)N1` (stereo partly shown) [J4], the figures for the “Degradation rate (%) of ERα in T-47D cells” value at ERα [1] (1nM compound) and on ERα [1] (10nM compound) were 8% and 51%, respectively. For the same compound, the “Degradation rate (%) of ERα in MCF-7 cells” value on ERα [2] (1nM compound) is 32%; at ERα [2] (10nM compound), 60%. Further, in the assay on MCF-7 cells, the midpoint of inhibition, the IC50, lay at 22.6 nM.
In the same order, the values of `O=C1CCC(N2Cc3c(ccc4c3OCC43CCN(CC(=O)N4CCC5(CC4)CCN(c4ccc([C@@H]6c7ccc(O)cc7CC[C@@H]6c6ccccc6)cc4)C5)CC3)C2=O)C(=O)N1` (stereo partly shown) [A72] are 39%, 51%, 33%, 64% and 6840 nM.
As to `O=C1CCC(N2Cc3c(ccc4c3OCC43CCN(C4CN(C(=O)C5CCN(c6ccc([C@@H]7c8ccc(O)cc8CC[C@@H]7c7ccccc7)cc6)CC5)C4)CC3)C2=O)C(=O)N1` (stereo partly shown) [D4], the “Degradation rate (%) of ERα in T-47D cells” value was 54% at ERα [1] (1nM compound) and 79% on ERα [1] (10nM compound). Further, the “Degradation rate (%) of ERα in MCF-7 cells” value came to 41% on ERα [2] (1nM compound) and 69% on ERα [2] (10nM compound). This compound had an IC50 in the assay on MCF-7 cells of 3580 nM.
Consider `O=C1CCC(N2Cc3c(ccc4c3OCC43CCN(C4CCN(CC5CCN(c6ccc([C@@H]7c8ccc(O)cc8CC[C@@H]7c7ccccc7)cc6)CC5)CC4)CC3)C2=O)C(=O)N1` (stereo partly shown) [G1], for which the entries for the “Degradation rate (%) of ERα in T-47D cells” value on ERα [1] (1nM compound) and on ERα [1] (10nM compound) were 22% and 53%, respectively. For the same compound, the “Degradation rate (%) of ERα in MCF-7 cells” value at ERα [2] (1nM compound) is reported as 25%; on ERα [2] (10nM compound) it was 35%. The compound further came in with an IC50 in the assay with MCF-7 cells of 4.13 nM.
